Assay [1] relates to Balb/3T3 (normal mouse fibroblasts). As to the kind of experiment: Cytotoxic activity against normal cells, SRB test. Format: cell-based. As to conditions: Balb/3T3, 72-hour culture. The procedure:
(§1) 4.3. Cytotoxic activity evaluation against normal cell lines with diverse tissue origins using the SRB test:
(§2) • a) normal mouse fibroblasts (BALB/3T3), • b) normal mammary gland cells (MCF-10), • c) normal human epithelium (HLMEC)
(§3) The stock solution of the tested compound with concentration of 20 mg/ml was prepared day before the analysis by dissolving the preparation in DMSO, followed by storage in -20°C. After 24 hours the preparation was thawed and diluted with the culture medium. The compounds were tested in concentrations of 100, 10, 1, 0.1 0.01 µg/ml.
(§4) The following human cancer cell lines were used in the study: HL-60 (promyelocytic leukemia), HL-60/MX2 (promyelocytic leukemia, line resistant to mitoxantrone), MCF7 (mammary gland cancer), LoVo (colorectal cancer), LoVo/Dx (colorectal cancer with multidrug resistance), HCV29T (bladder cancer), A498 (kidney cancer), A549 (lung cancer) and LNCaP (prostate cancer), as well as normal cell lines: BALB3T3 (normal mouse fibroblasts), MCF-10 (normal mammary gland cells) and HLMEC (normal human endothelium).
(§5) The cells in the phase of logarithmic growth were seeded on a 96-well plate (Sarsted) in quantity of 1 x 10^4 cells/well, and then incubated at 37°C, 5% CO2 for 24 hours. Subsequently, the tested compound was added in different concentrations and the incubation was carried out. […] For each assay the samples containing predetermined preparation concentrations were applied in triplicates. The experiments were repeated 3-5 times.
(§6) Sulphorhodamine B (SRB) is an anionic dye which binds to […] amino acids of cellular proteins. The determination of cytotoxic activity in the assay is based on the measurement of the amount of cellular proteins.
(§7) After the incubation is finished the attached cells are fixed with cold 50% TCA (4°C) at 4°C for 1 hour. Next, each well is washed with water and air dried, repeating this step 5 times.
(§8) 0.4% SRB solution (Sigma-Aldrich) dissolved in 1% acetic acid is added consecutively to each well and the staining is carried out for 30 minutes. The unbound dye is removed and the cells are washed 4 times with 1% acetic acid. Next, the plate is air dried for about 5 minutes.
(§9) The bound dye is dissolved by adding 10 mM Tris-base to each well and then OD is determined for wavelength 540 nm (Multiscan RC photometer, Labsystes, Helsinki).

Assay [2] deals with HLMEC (normal human epithelium). As to the kind of experiment: Cytotoxic activity against normal cells, SRB test. As to conditions: 72-hour culture. Format: cell-based. Here is the method: as §1, §2, §3, §4, §5, §6, §7, §8, §9
For orientation: The SRB assay estimates cell density from bound dye.

The test system of assay [3] is MCF-10 (normal mammary gland cells). As to the kind of experiment: Cytotoxic activity against normal cells, SRB test. Format: cell-based. The procedure: as §1, §2, §3, §4, §5, §6, §7, §8, §9
Assay [4] concerns HL-60 (promyelocytic leukemia). The assay can be described thus: Anti-proliferative activity, MTT test. Format: cell-based, human. The note with it: HL-60, 72-hour culture. The procedure: (§10) 4.2. Anti-proliferative activity evaluation using the MTT test [Marcinkowska et al.: J. Steroid Biochem. Mol. 76: 71-78, 1998] against human cancer cell lines with diverse tissue origins and determination of the IC50 concentration: • a) promyelocytic leukemia HL-60, • b) promyelocytic leukemia HL-60/MX2 (with multidrug resistance)
as §3, §4, §5
(§11) The method involves a measurement of cell number increase inhibition utilizing the redox activity of mitochondria. The determination of biological activity with the MTT (3-(4,5-dimethylthiazol-2-yl)-2,5-diphenyltetrazolium bromide) assay is based on the assumption that reduction of the dye occurs only in viable cells. As a result of mitochondrial dehydrogenase activity the water-soluble tetrazolium salt (thiazolyl blue […] - MTT) is converted to water-insoluble formazan crystals. The quantity of the formed formazan crystals is proportional to the number of cells.
(§12) 3-4 hours before the end of cell incubation 20 µl of MTT solution (5 mg/ml) was added to each well. Next, 80 µl of dissolving mixture (with the following composition: 225 ml DMF (POCh), 67.5 g SDS (Sigma-Aldrich), 275 ml distilled H2O) was added. After 24 hours, formazan crystals were dissolved and OD of the samples was measured for wavelength 570 nm (Multiskan PC photometer, Labsystem, Helsinki).

Assay [5] relates to HL-60 MX2 (promyelocytic leukemia with multidrug resistance). As to the kind of experiment: Anti-proliferative activity, MTT test. Format: cell-based, human. Here is the method: as §10, §3, §4, §5, §11, §12
On the technique in general: Formazan colour is commonly taken as a measure of viable cells.

A further assay has as its system A498 (kidney cancer). As to the kind of experiment: Anti-proliferative activity, SRB test. Format: cell-based, human. As to conditions: A498, 72-hour culture.
From the text: (§13) 4.1. Anti-proliferative activity evaluation using the SRB test [Skehan et al., J. Natl. Cancer Inst., 82: 1107-1112, 1990] against human cancer cell lines with diverse tissue origins and determination of the IC50 concentration: • a) colorectal cancer LoVo, • b) colorectal cancer LoVo/DX (with multidrug resistance), • c) breast cancer MCF-7, • d) prostate cancer LNCaP, • e) bladder cancer HCV29T, • f) kidney cancer A498, • g) lung cancer A549
as §3, §4, §5, §6, §7, §8, §9

A further assay concerns A549 (lung cancer). As to the kind of experiment: Anti-proliferative activity, SRB test. Format: cell-based, human. As to conditions: A549, 72-hour culture.
From the text: as §13, §3, §4, §5, §6, §7, §8, §9

A further assay deals with HCV29T (bladder cancer). As to the kind of experiment: Anti-proliferative activity, SRB test. Format: cell-based, human. As to conditions: 72-hour culture.
From the text: as §13, §3, §4, §5, §6, §7, §8, §9

In the next assay the test system is LNCaP (prostate cancer). As to the kind of experiment: Anti-proliferative activity, SRB test. Format: cell-based, human. The note with it: 72-hour culture.
From the text: as §13, §3, §4, §5, §6, §7, §8, §9

The next assay concerns Lovo (colorectal cancer). As to the kind of experiment: Anti-proliferative activity, SRB test. As to conditions: 72-hour culture. Format: cell-based, human.
From the text: as §13, §3, §4, §5, §6, §7, §8, §9

The subject of assay [6] is Lovo/Dx (colorectal cancer with multidrug resistance). The assay can be described thus: Anti-proliferative activity, SRB test. Format: cell-based, human. The note with it: 72-hour culture.
From the text: as §13, §3, §4, §5, §6, §7, §8, §9

The test system of another assay is MCF-7 (breast cancer). As to the kind of experiment: Anti-proliferative activity, SRB test. Format: cell-based, human.
From the text: as §13, §3, §4, §5, §6, §7, §8, §9

The target of assay [7] is T1, pig kidney microsomal leucyl aminopeptidase, Type IV-S (Sus scrofa, UniProt P15145).
T1 construct: pig kidney microsomal leucyl aminopeptidase, Type IV-S (Sigma-Aldrich) 3.5 mg of protein/ml; purchased Sigma-Aldrich; host or cells: pig kidney (microsomal fraction)
T1 sequence (P15145 1-963): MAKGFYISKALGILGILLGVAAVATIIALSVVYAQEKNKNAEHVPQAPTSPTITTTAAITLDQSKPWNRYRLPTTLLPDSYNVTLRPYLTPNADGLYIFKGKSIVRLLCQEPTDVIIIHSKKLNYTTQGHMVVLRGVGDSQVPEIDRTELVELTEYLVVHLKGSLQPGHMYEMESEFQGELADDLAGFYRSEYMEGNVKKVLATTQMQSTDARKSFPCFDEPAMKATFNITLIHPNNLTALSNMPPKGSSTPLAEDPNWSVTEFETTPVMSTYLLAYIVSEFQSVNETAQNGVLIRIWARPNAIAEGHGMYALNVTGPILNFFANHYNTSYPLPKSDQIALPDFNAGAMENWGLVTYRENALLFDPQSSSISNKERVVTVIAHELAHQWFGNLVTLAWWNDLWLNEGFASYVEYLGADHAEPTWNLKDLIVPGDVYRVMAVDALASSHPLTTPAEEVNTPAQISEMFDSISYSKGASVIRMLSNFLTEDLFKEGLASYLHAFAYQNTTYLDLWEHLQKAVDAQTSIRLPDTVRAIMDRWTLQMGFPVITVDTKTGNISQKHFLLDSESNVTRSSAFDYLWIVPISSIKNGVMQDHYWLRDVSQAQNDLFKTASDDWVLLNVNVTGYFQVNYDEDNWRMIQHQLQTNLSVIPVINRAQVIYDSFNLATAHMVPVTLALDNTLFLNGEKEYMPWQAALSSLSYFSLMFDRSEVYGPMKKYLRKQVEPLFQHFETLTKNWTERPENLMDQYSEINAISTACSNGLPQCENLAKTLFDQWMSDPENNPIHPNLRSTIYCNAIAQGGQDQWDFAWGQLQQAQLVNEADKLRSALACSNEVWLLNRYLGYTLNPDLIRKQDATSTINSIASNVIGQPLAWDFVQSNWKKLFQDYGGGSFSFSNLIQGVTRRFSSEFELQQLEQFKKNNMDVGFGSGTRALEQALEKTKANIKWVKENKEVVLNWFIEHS
As to the kind of experiment: Leucyl aminopeptidase inhibition (L-leucine p-nitroanilide substrate, absorbance 405 nm). Format: biochemical. The note with it: pre-incubation 30 minutes at 37 °C, pH 8.5; IC50 by linear regression. Here is the method:
Leucyl aminopeptidase inhibition according to Cahan R., Hetzroni E., Nisnevitch M., Nitzan Y.: Purification and Identification of a Novel Leucine Aminopeptidase from Bacillus Thuringiensis israelensis. Curr. Microbial (2007) 55: 413-419.
• 1. Enzyme: pig kidney microsomal leucyl aminopeptidase, Type IV-S (Sigma-Aldrich) 3.5 mg of protein/ml, 28 U/mg of protein; diluted with 0.02M Tris-HCl + 0.5 mM CaCl2 buffer pH=8.5 until activity 0.01225U achieved • 2. Substrate: L-leucine p-nitroanilide: 4.2 mg / 269 µl DMSO; solution diluted 1:19 with 0.02 M Tris-HCl buffer, pH = 8.5 + 0.5 mM CaCl2 • 3. 0.02 M Tris-HCl buffer, pH = 8.5 + 0.5 mM CaCl2 • 4. DMSO, inhibitor solution in DMSO
5 µl of leucyl aminopeptidase ([…]), 70 µl of Tris, 5 µl of inhibitor solution in different concentrations (in DMSO) were added to the wells of a microtitration plate, followed by pre-incubation for 30 minutes at 37 °C. Next, 20µl of diluted L-leucine p-nitroanilide solution was added, whereupon the reaction mixture was incubated for 20 minutes at 37 °C, with measurement of absorbance changes for wavelength 405 nm (Fluorostar, Omega, BMG Labtech). The control sample for the enzyme contained analogous components, while instead of the inhibitor solution DMSO (5 µl) was added.
For each inhibitor concentration the percentage inhibition was calculated. The inhibitor concentration required for 50% of enzyme activity inhibition (IC50) was calculated based on linear regression data between the percentage inhibition and the concentration for a given inhibitor.

≈ marks a conversion by molar mass, not a printed value. Read-outs that look alike come from different tables or passages of the source.

On to `N.N.[Cl][Pt][Cl]` [Cisplatin, reference compound], for which the IC50 came out at 2.4 ± 0.3 µg/mL in assay [1]; 2.6 ± 0.3 µg/mL in assay [2]; 0.7 µg/mL in assay [3] (MCF-10, 72-hour culture); 0.4 ± 0.1 µg/mL in assay [4]; 0.32 ± 0.02 µg/mL in assay [5] (HL-60 MX2, 72-hour culture); 2.8 ± 0.6 µg/mL in the assay with A498 (kidney cancer). Moreover, the IC50 with A549 (lung cancer) was 3.2 ± 1.0 µg/mL; with HCV29T (bladder cancer), 2.7 ± 0.6 µg/mL; in the assay with LNCaP (prostate cancer), 6.2 ± 1.3 µg/mL; in the assay with Lovo (colorectal cancer), 2.5 ± 1.3 µg/mL; in [6] it was 3.0 ± 0.7 µg/mL; with MCF-7 (breast cancer) (MCF-7, 72-hour culture), 3.6 ± 0.6 µg/mL.
On to `CCOC(=O)C1(C(=O)OCC)Cc2cc(OCc3ccccc3)cc(OCc3ccccc3)c2C=N1` [Compound 3, 6,8-dibenzyloxy-3,4-dihydroisoquinoline-3,3-dicarboxylic acid diethyl ester], for which the half-inhibitory concentration (IC50) in assay [7] came out at 28 µM; in [1] (Mus musculus, read-out: IC50) it was 17.4 ± 7.9 µg/mL (≈ 35.6 µM); in assay [2] (Homo sapiens, read-out: IC50), 3.3 ± 0.3 µg/mL (≈ 6.77 µM); in assay [3] (Homo sapiens, MCF10, MCF-10, 72-hour culture, read-out: IC50), 15.3 µg/mL (≈ 31.4 µM); in assay [4] (Homo sapiens, read-out: IC50), 0.12 µg/mL (≈ 0.246 µM); in assay [5] (Homo sapiens, HL60/MX2, HL-60 MX2, 72-hour culture, read-out: IC50), 1.3 µg/mL (≈ 2.67 µM). The half-maximal inhibitory concentration (IC50) was found to be 6.5 ± 1.5 µg/mL (≈ 13.3 µM) with A498 (kidney cancer) (Homo sapiens, read-out: IC50); 6.4 ± 2.3 µg/mL (≈ 13.1 µM) in the assay on A549 (lung cancer) (Homo sapiens, read-out: IC50); 4.3 ± 0.7 µg/mL (≈ 8.82 µM) with HCV29T (bladder cancer) (Homo sapiens, read-out: IC50); 1.6 ± 0.3 µg/mL (≈ 3.28 µM) with LNCaP (prostate cancer) (Homo sapiens, read-out: IC50); 3.1 ± 0.3 µg/mL (≈ 6.36 µM) with Lovo (colorectal cancer) (Homo sapiens, read-out: IC50); 2 ± 0.8 µg/mL (≈ 4.1 µM) in assay [6] (Homo sapiens, read-out: IC50). The 50% inhibitory concentration (IC50) with MCF-7 (breast cancer) (Homo sapiens, MCF7, MCF-7, 72-hour culture, read-out: IC50) is 4.7 ± 0.8 µg/mL (≈ 9.64 µM).

The IC50 is the midpoint of a concentration-inhibition curve.
